Results from patent US5827837A, “Polyanion anti-inflammatory agents” (priority 1996, dated 1998).
“Also recorded” adds a separate entry of the source.

What was measured:
[1] = Toxic effects after injection, applicant's studies; assay type: in vivo
[2] = test system: PMN within the peritoneal cavity; test: Thioglycollate-induced peritoneal inflammation, PMN accumulation; assay type: in vivo, mice (Balb/c); conditions: mice
[3] = test system: E-selectin (E-COS); test: PMN adhesion to E-selectin transfected COS cells (E-COS); assay type: cell-based, human; conditions: 0.5 mM
Experimental: COS-1 cells were transfected as described (Seed, B., et al., Proc. Natl. Acad. Sci., U.S.A., 84:3365, 1987; Aruffo, A., Current Protocols In Molecular Biology, eds. supra, 1992) with pCDM7/pCDM8 expression vectors containing the full-length E-, P- and L-selectin cDNA. Transfected COS-1 cells were seeded on gelatin coated coverslips.

[4] = molecular target: T1, E-selectin-lg fusion protein (Homo sapiens, UniProt P16581); test: Competition ELISA: binding of E-selectin-Ig to immobilized BSA-sLe^x; conditions: BSA-sLe^x competition ELISA
T1 construct: Each selectin-lg contains the lectin domain, epidermal growth factor domain, and one (L-selectin-lg), two (P-selectin-lg) or six (E-selectin-lg) complement regulatory repeats; made in house
Source text: Selectin-lg fusion proteins are recombinant chimeric molecules containing extracellular regions of selectins coupled to the hinge, CH2, and CH3 regions of human IgG1 (Aruffo, A., et al., Cell, 67:35, 1991; Walz, G., et al., Science, 250:1132, 1990). Each selectin-lg contains the lectin domain, epidermal growth factor domain, and one (L-selectin-lg), two (P-selectin-lg) or six (E-selectin-lg) complement regulatory repeats of the parent molecules. DNAs encoding selectin-Ig inserted in pCDM7 allowed transient expression of recombinant proteins in COS cells as previously described (Seed, B., et al., Proc. Natl. Acad. Sci., U.S.A., 84:3365, 1987; Aruffo, A., Current Protocols In Molecular Biology, eds. Ausubel, F. M., et al, 16:13.1, Greene Publishing Associates and Wiley-lnterscience, New York, N.Y., 1992). These DNAs were also ligated into pNUT (Palmiter, R. D., et al, Cell, 50:435, 1987) for amplification and stable expression in BHK cells. The fusion proteins were affinity purified from culture media using protein A (Pierce Chemical Company, Rockford, Ill.) or protein G (Pharmacia, Piscataway, N.J.) Sepharose, as previously described (Aruffo, A., et al., Cell, 67:35, 1991; Aruffo, A., Current Protocols In Molecular Biology, eds. Ausubel, F. M., et al, supra, 1992). Competition binding ELISAs using P- and E-selectin-lg were performed essentially as described (Nelson, R. M., et al., J. Clin. Invest., 91:1157, 1993), except that the assay buffer was 20 mM HEPES pH 7.4, 150 mM NaCl, 2 mM CaCl2, and 0.25 mM thimerosal, containing 10 mg/ml BSA, protease-free, (Miles Inc., Kankakee, Ill.). Selectin concentrations were from 10 to 30 nM. […] To increase L-selectin binding, an assay similar to that previously described was used (Foxall, C., et al., J. Cell Biol., 117:895, 1992), in which the L-selectin-lg (10-20 nM) was allowed to form aggregates with HRP-conjugated anti-lg antibody for 30 minutes prior to addition of inositols and incubation on the BSA-sLe^x -coated plate. IC50 values were calculated by fitting binding data to the equation: fraction of maximal binding=IC50 […] using nonlinear least squares analysis software (Origin, Microcal Inc, Northampton, Mass.). InsP6 (dodecasodium salt), InsS6 (hexapotassium salt), myo-inositol 1 monophosphate (cyclohexylammonium salt), and myo-inositol were from Sigma Chemical Company (St. Louis, Mo.). Stock solutions were prepared daily in 0.9% NaCl and sterilized by 0.22 μm filtration. InsP6 solutions were adjusted at pH 7.4 with HCl.
L-, P-, or E-selectin-lg fusion proteins were incubated for 2-3 hours on microtiter plates coated with the neoglycoprotein BSA-sLe^x, the plates washed, and bound selectin-lg was detected using a peroxidase-conjugated antibody directed against the lg portion and a chromogenic substrate. To determine blocking activity, solution-phase lnsP6 (.circle-solid.), InsS6 (.largecircle.), or inositol (.box-solid.) at the indicated concentrations were added to the solutions containing selectin-Ig fusion proteins prior to transfer to microtiter plates (competition ELISA).

[5] = Ca^2+; read-out: Kd, calcium binding; cited from earlier work
[6] = test system: PMN within the peritoneal cavity; test: Zymosan-induced peritoneal inflammation, PMN accumulation; assay type: in vivo, mice (Balb/c); conditions: mice
Experimental: Mice (Balb/c males, 4-5 weeks old, 20-24 grams) were injected i.p. with 1 ml of 3% thioglycollate broth (lot #622462, Clinical Standard Laboratories, Inc., Rancho Dominguez, Calif.) left panel, or 0.5 mg of zymosan (Sigma) in 1 ml of sterile, pyrogen-free saline (Abbott Laboratories, North Chicago, Ill.), (FIG. 4, right panel). Control animals were injected i.p. with 1 ml of sterile pyrogen-free saline. After 40 and 80 min the animals received i.v. injections of 0.2 ml of sterile saline with or without InsP6 (total of 80 μmol/kg) or inositol (400 μmol/kg). Mice were sacrificed at 120 min and PMN within the peritoneal cavity were collected by lavage with 10 ml of ice-cold PBS containing 10 U/ml of heparin. After red blood cell lysis, the cells were counted in a hemocytometer (2 separate counts per sample, in triplicate). The percentage of PMN was assessed by counting cytospin preparations (two counts per slide, 300 cells per count) stained with Dif-Quick stain (Baxter, McGaw Park, Ill). Data are expressed as the mean ±s.d. of three separate experiments, with 5-6 animals per group in each experiment except for the group injected with saline i.p. that was constituted by 2 animal per experiment. […]

T1 sequence (P16581 with tags, fused parts or gaps limits assumed): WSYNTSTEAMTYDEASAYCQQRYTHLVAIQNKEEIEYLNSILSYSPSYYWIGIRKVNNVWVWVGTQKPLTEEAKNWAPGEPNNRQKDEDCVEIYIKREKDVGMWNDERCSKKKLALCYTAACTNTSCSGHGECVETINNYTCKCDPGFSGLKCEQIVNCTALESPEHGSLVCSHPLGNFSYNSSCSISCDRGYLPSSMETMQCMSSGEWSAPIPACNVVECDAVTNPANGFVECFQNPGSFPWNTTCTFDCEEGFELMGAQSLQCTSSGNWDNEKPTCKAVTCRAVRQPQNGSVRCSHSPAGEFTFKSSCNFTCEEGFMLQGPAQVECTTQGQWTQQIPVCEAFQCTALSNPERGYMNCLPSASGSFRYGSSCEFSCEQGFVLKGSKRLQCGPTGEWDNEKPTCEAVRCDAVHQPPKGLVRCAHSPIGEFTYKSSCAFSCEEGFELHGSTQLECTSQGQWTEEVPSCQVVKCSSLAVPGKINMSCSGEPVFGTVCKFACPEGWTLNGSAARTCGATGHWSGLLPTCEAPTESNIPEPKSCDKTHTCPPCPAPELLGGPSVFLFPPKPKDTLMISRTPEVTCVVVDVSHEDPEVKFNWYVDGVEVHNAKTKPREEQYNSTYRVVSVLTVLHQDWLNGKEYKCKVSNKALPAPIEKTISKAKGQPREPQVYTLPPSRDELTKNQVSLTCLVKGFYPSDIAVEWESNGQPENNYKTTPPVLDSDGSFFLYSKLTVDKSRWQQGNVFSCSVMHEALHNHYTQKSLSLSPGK

SMILES	toxic effects at decreased infusion rate and lower doses ([1]; 40 μmol/kg, decreased rate of infusion)	duration of transient toxic effects ([1]; rapid i.v. (5-10 sec), >50 μmol/kg) [min]	toxic effects upon rapid i.v. injection ([1]; rapid i.v. (5-10 sec), concentrated solutions >50 μmol/kg)	harmful effect on repeated protocol ([1]; repeated multiple times in the same animal, 40 μmol/kg)	toxic effects, subcutaneous ([1]; s.c., doses up to 200 μmol/kg)	inhibition of PMN accumulation, single subcutaneous injection ([2]; 40-100 μmol/kg s.c. 3 min after thioglycollate)	reduction in PMN recovered from the peritoneal cavity ([2]; i.v. at 40 and 80 min, total 80 μmol/kg, PMN at 120 min, 3 experiments) [%]	PMN adhesion to E-COS [3]	inhibition of E-selectin-Ig binding [4]	Kd [5] [µM]	effect in zymosan-induced peritoneal inflammation ([6]; relative to thioglycollate model)	inhibition of PMN accumulation, thioglycollate model ([2]; 400 μmol/kg, 1 experiment) [%]	inhibition of PMN accumulation, zymosan model ([6]; 400 μmol/kg, 1 experiment) [%]
O=P(O)(O)O[C@H]1[C@H](OP(=O)(O)O)[C@@H](OP(=O)(O)O)[C@H](OP(=O)(O)O)[C@@H](OP(=O)(O)O)[C@H]1OP(=O)(O)O [InsP6, myo-inositol hexakisphosphate]	These effects were avoided	1 to 3	some transient (duration 1-3 min) toxic effects (unsteady gate, spasms)	without apparent harmful effect	no toxic effects were observed	46-59%	58±3	not to E-COS	failed to inhibit the binding of E-selectin-lg at concentrations up to 5 mM; also recorded: did not block E-selectin-lg binding	~5	equally effective	–	–
O=S(=O)(O)O[C@H]1[C@H](OS(=O)(=O)O)[C@@H](OS(=O)(=O)O)[C@H](OS(=O)(=O)O)[C@@H](OS(=O)(=O)O)[C@H]1OS(=O)(=O)O [InsS6, myo-inositol hexakissulfate]	–	–	–	–	–	–	–	–	failed to inhibit the binding of E-selectin-lg at concentrations up to 5 mM	–	–	33±13	31±11
